Source: paper PMC4946363 (Cancer Research and Treatment : Official Journal of Korean …, 2016)
Where a name gives a salt, the structure may show the parent alone. Values belong to the compound of their own block, whether it stands above or below them.

Columns and labels:
CML = CML patients; cited from earlier work
[1] = oral; cited from earlier work
[2] = test system: myeloid blast crisis and lymphoid blast crisis; conditions: cited from earlier work
[3] = Stability of imatinib in the LC-MS/MS bioanalytical method validation

Compound: interferon-α [IFN-α]
Cytogenetic remission (CML): 6%-20%

In-injector stability, % change, HQC ([3]; 2-8°C, ~77 hr, high quality control): –5.6%
In-injector stability, % change, LQC ([3]; 2-8°C, ~77 hr, low quality control): 4.6%
Freeze thaw stability, % change, HQC ([3]; 3 cycles, high quality control): –6.1%
Freeze thaw stability, % change, LQC ([3]; 3 cycles, low quality control): 2.2%
Long-term stability, accuracy, HQC ([3]; 70 days, high quality control): 97.4%
Long-term stability, accuracy, LQC ([3]; 70 days, low quality control): 95.7%
Long-term stability, accuracy, MQC ([3]; 70 days, medium quality control): 101.5%
Bench top stability, % change, HQC ([3]; room temperature, ~7 hr, high quality control): –7.2%
Bench top stability, % change, LQC ([3]; room temperature, ~7 hr, low quality control): 10.2%
Inter-patient CV, lnAUC0-24 (ln-transformed AUC0-24): 25.2%
Intra-patient CV, lnAUC0-24 (ln-transformed AUC0-24, test and reference together): 12.3%
Inter-patient CV, lnCmax (ln-transformed Cmax): 20.4%
Intra-patient CV, lnCmax (ln-transformed Cmax, test and reference together): 13.6%
Compound: Cc1ccc(NC(=O)c2ccc(CN3CCN(C)CC3)cc2)cc1Nc1nccc(-c2cccnc2)n1 [imatinib]
Time to attain peak plasma concentration (Cmax) [1]: 2 to 4 h
Duration of remission from the commencement of therapy ([2]; responding patients continued on imatinib treatment): 101 to 349 days

Compound: Cc1ccc(NC(=O)c2ccc(CN3CCN(C)CC3)cc2)cc1Nc1nccc(-c2cccnc2)n1 [imatinib mesylate]
Response rate, lymphoid blast crisis ([2]; oral 300-1,000 mg/day, 14 out of 20 patients): 70%
Response rate, myeloid blast crisis ([2]; oral 300-1,000 mg/day, 21 out of 38 patients): 55%
Complete hematologic response, myeloid blast crisis ([2]; oral 300-1,000 mg/day): 19%
Complete hematologic responses, lymphoid blast crisis ([2]; oral 300-1,000 mg/day): 20%
